In patent US20260217767A1, “NOVEL A4B7 THIOETHER PEPTIDE DIMER ANTAGONISTS” (Protagonist Therapeutics, Inc., priority 2014, published 2026):
Where two headings read alike, the source gives them in different places. *1 amine or outer side, *2 acyl side, *3 side chain or, on linkers, in order; H or OH if unused. Where a SMILES comes first, the peptide text is derived from it. Bridges are numbered along the chain shown (N, C = ends). Roman numbers before positions name the chains, in order. [ ]: non-standard residue; d: D form. Bip = N[C@@H](Cc1ccc(-c2ccccc2)cc1)C(=O)O; Diglycolyl = O=C(COCC(=O)[*:2])[*:1]; NMeR = CN[C@@H](CCCNC(=N)N)C(=O)O; X1 = O=C(c1ccccc1C[*:2])[*:1]; Pen = CC(C)(S)[C@H](N)C(=O)O

Biological target: T1, rh integrin α4β7 (Homo sapiens, UniProt P13612+P26010)
T1 construct: purchased R&D Systems 5397-A30
T1 sequence (P13612 34-977 limits assumed): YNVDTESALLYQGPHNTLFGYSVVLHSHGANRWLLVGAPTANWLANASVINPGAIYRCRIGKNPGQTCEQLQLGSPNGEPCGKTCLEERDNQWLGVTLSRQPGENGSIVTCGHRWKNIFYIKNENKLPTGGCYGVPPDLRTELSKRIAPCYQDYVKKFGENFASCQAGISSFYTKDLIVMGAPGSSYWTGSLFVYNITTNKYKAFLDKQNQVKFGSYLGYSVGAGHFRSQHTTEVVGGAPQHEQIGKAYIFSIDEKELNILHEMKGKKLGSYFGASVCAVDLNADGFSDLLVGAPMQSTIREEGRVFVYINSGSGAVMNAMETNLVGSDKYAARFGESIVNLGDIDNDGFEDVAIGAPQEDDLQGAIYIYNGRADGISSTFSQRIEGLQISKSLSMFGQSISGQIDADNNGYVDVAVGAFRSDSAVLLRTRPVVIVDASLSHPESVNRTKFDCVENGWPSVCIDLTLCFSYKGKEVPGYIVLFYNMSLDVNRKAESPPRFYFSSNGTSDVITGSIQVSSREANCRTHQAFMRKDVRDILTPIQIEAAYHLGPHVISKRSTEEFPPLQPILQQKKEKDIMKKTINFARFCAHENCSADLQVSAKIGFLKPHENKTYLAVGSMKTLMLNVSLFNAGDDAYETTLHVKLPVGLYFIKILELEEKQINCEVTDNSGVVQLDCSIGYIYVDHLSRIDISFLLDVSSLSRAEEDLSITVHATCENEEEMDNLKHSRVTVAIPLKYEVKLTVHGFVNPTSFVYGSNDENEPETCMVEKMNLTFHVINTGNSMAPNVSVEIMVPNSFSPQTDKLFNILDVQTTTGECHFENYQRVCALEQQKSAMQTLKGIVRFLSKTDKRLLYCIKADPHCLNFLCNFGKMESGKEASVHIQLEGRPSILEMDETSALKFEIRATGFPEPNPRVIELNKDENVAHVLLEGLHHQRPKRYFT
T1 sequence (P26010 20-723 limits assumed): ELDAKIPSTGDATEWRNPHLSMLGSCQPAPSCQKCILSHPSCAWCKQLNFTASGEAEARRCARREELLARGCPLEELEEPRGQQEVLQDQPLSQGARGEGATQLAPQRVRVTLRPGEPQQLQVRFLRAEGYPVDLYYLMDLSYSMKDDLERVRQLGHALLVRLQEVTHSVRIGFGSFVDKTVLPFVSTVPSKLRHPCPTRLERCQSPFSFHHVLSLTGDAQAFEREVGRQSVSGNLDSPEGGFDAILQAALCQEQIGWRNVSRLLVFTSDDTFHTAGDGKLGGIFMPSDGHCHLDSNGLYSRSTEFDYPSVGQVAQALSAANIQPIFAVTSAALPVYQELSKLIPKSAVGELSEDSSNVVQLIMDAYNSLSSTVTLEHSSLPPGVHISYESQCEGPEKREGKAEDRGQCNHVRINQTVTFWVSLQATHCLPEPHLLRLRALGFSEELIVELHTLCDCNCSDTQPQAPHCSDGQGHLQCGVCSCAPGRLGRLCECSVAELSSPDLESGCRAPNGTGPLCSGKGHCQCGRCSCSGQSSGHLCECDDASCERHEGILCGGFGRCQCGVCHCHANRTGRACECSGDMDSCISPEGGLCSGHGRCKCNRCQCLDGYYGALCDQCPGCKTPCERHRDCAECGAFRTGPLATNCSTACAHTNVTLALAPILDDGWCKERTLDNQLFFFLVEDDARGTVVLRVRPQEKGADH
Test: α4β7-MAdCAM Competition ELISA
Assay type: binding
Settings: read-out: ELISA A4B7
How it was run: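 Recombinant human α4β7 captured on nickel-coated plates, then incubated 1 h at room temperature with serially diluted peptides (final top 10 μM) and 10 nM final MAdCAM-1 in Tris pH 7.6 buffer with 1 mM MnCl2 or MgCl2. Bound MAdCAM-1 detected with anti-human IgG1-HRP and TMB, absorbance at 450 nm.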

[1] = thioether peptide dimers, Table 7
[2] = thioether monomer peptides, Table 6

Structure (SMILES)	IC50 [1] [nM]	IC50 [2] [nM]
CC(C)C[C@@H]1NC(=O)[C@H]([C@@H](C)O)NC(=O)[C@H](CC(=O)O)NC(=O)[C@H](CO)NC(=O)[C@H](CCCNC(=N)N)N(C)C(=O)CSC[C@@H](C(=O)N[C@@H](Cc2c[nH]c3ccccc23)C(=O)N[C@H](CCCCNC(=O)COCC(=O)NCCCC[C@@H](NC(=O)[C@H](Cc2c[nH]c3ccccc23)NC(=O)[C@@H]2CSCC(=O)N(C)[C@@H](CCCNC(=N)N)C(=O)N[C@@H](CO)C(=O)N[C@@H](CC(=O)O)C(=O)N[C@@H]([C@@H](C)O)C(=O)N[C@@H](CC(C)C)C(=O)N2)C(N)=O)C(N)=O)NC1=O [compound 143]	< 25	
CC(C)C[C@@H]1NC(=O)[C@H]([C@@H](C)O)NC(=O)[C@H](CC(=O)O)NC(=O)[C@H](CO)NC(=O)[C@H](CCCNC(=N)N)N(C)C(=O)c2ccccc2CSC(C)(C)[C@@H](C(=O)N[C@@H](Cc2c[nH]c3ccccc23)C(=O)N[C@H](CCC(=O)O)C(=O)N[C@H](Cc2ccccc2)C(N)=O)NC1=O [compound 107] (HELM PEPTIDE1{[meR].S.D.T.L.[Pen].W.[dE].[dF].[am]}|CHEM1{[O=C(c1ccccc1C[*:2])[*:1]]}$PEPTIDE1,CHEM1,1:R1-1:R1|PEPTIDE1,CHEM1,6:R3-1:R2$$$V2.0)		< 25
CC(C)C[C@@H]1NC(=O)[C@H]([C@@H](C)O)NC(=O)[C@H](CC(=O)O)NC(=O)[C@H](CO)NC(=O)[C@H](CCCNC(=N)N)N(C)C(=O)c2ccccc2CSC(C)(C)[C@@H](C(=O)N[C@@H](Cc2c[nH]c3ccccc23)C(=O)N[C@H](CCC(=O)O)C(=O)N[C@@H](CCC(=O)O)C(N)=O)NC1=O [compound 113] (HELM PEPTIDE1{[meR].S.D.T.L.[Pen].W.[dE].E.[am]}|CHEM1{[O=C(c1ccccc1C[*:2])[*:1]]}$PEPTIDE1,CHEM1,1:R1-1:R1|PEPTIDE1,CHEM1,6:R3-1:R2$$$V2.0)		< 25
CC(C)C[C@@H]1NC(=O)[C@H]([C@@H](C)O)NC(=O)[C@H](CC(=O)O)NC(=O)[C@H](CO)NC(=O)[C@H](CCCNC(=N)N)N(C)C(=O)c2ccccc2CSC(C)(C)[C@@H](C(=O)N[C@@H](Cc2ccc3ccccc3c2)C(N)=O)NC1=O [compound 116] (HELM PEPTIDE1{[meR].S.D.T.L.[Pen].[O=C([C@H](Cc1ccc2ccccc2c1)N[*:1])[*:2]].[am]}|CHEM1{[O=C(c1ccccc1C[*:2])[*:1]]}$PEPTIDE1,CHEM1,1:R1-1:R1|PEPTIDE1,CHEM1,6:R3-1:R2$$$V2.0)		< 25
CC(C)C[C@@H]1NC(=O)[C@H]([C@@H](C)O)NC(=O)[C@H](CC(=O)O)NC(=O)[C@H](CO)NC(=O)[C@H](CCCNC(=N)N)N(C)C(=O)c2ccccc2CSC(C)(C)[C@@H](C(=O)N[C@@H](Cc2c[nH]c3ccccc23)C(=O)N[C@H](CCC(=O)O)C(=O)N[C@@H](CCN)C(N)=O)NC1=O [compound 95] (HELM PEPTIDE1{[meR].S.D.T.L.[Pen].W.[dE].[Dab].[am]}|CHEM1{[O=C(c1ccccc1C[*:2])[*:1]]}$PEPTIDE1,CHEM1,1:R1-1:R1|PEPTIDE1,CHEM1,6:R3-1:R2$$$V2.0)		< 25
CC(C)C[C@@H]1NC(=O)[C@H]([C@@H](C)O)NC(=O)[C@H](CC(=O)O)NC(=O)[C@H](CO)NC(=O)[C@H](CCCNC(=N)N)N(C)C(=O)c2ccccc2CSC[C@@H](C(=O)N[C@@H](Cc2c[nH]c3ccccc23)C(=O)N[C@@H](CCC(=O)O)C(=O)N[C@H](CCCCN)C(N)=O)NC1=O [compound 55] (HELM PEPTIDE1{[meR].S.D.T.L.C.W.E.[dK].[am]}|CHEM1{[O=C(c1ccccc1C[*:2])[*:1]]}$PEPTIDE1,CHEM1,1:R1-1:R1|PEPTIDE1,CHEM1,6:R3-1:R2$$$V2.0)		< 25
CC(C)C[C@@H]1NC(=O)[C@H]([C@@H](C)O)NC(=O)[C@H](CC(=O)O)NC(=O)[C@H](CO)NC(=O)[C@H](CCCNC(=N)N)N(C)C(=O)c2ccccc2CSC(C)(C)[C@@H](C(=O)N[C@@H](Cc2ccc(-c3ccccc3)cc2)C(=O)N[C@H](CCC(=O)O)C(=O)N[C@H](CCCCN)C(N)=O)NC1=O [compound 178] (HELM PEPTIDE1{[meR].S.D.T.L.[Pen].[O=C([C@H](Cc1ccc(-c2ccccc2)cc1)N[*:1])[*:2]].[dE].[dK].[am]}|CHEM1{[O=C(c1ccccc1C[*:2])[*:1]]}$PEPTIDE1,CHEM1,1:R1-1:R1|PEPTIDE1,CHEM1,6:R3-1:R2$$$V2.0)	< 25	
CC(C)C[C@@H]1NC(=O)[C@H]([C@@H](C)O)NC(=O)[C@H](CC(=O)O)NC(=O)[C@H](CO)NC(=O)[C@H](CCCNC(=N)N)N(C)C(=O)c2ccccc2CSC(C)(C)[C@@H](C(=O)N[C@@H](Cc2c[nH]c3ccccc23)C(=O)N[C@H](CCC(=O)O)C(=O)N[C@H](CO)C(N)=O)NC1=O [compound 106] (HELM PEPTIDE1{[meR].S.D.T.L.[Pen].W.[dE].[dS].[am]}|CHEM1{[O=C(c1ccccc1C[*:2])[*:1]]}$PEPTIDE1,CHEM1,1:R1-1:R1|PEPTIDE1,CHEM1,6:R3-1:R2$$$V2.0)		< 25
CC(C)C[C@@H]1NC(=O)[C@H]([C@@H](C)O)NC(=O)[C@H](CC(=O)O)NC(=O)[C@H](CO)NC(=O)[C@H](CCCNC(=N)N)N(C)C(=O)C(C)SC[C@@H](C(=O)N[C@@H](Cc2c[nH]c3ccccc23)C(=O)N[C@H](CCCCN)C(N)=O)NC1=O (single isomer, unassigned) [compound 144]	< 25	
CC(C)C[C@@H]1NC(=O)[C@H]([C@@H](C)O)NC(=O)[C@H](CC(=O)O)NC(=O)[C@H](CO)NC(=O)[C@H](CCCNC(=N)N)N(C)C(=O)c2ccccc2CSC(C)(C)[C@@H](C(=O)N[C@@H](Cc2c[nH]c3ccccc23)C(=O)N[C@H](CCC(=O)O)C(=O)N[C@@H](Cc2ccc(O)cc2)C(N)=O)NC1=O [compound 104] (HELM PEPTIDE1{[meR].S.D.T.L.[Pen].W.[dE].Y.[am]}|CHEM1{[O=C(c1ccccc1C[*:2])[*:1]]}$PEPTIDE1,CHEM1,1:R1-1:R1|PEPTIDE1,CHEM1,6:R3-1:R2$$$V2.0)		< 25
CC(C)C[C@@H]1NC(=O)[C@H]([C@@H](C)O)NC(=O)[C@H](CC(=O)O)NC(=O)[C@H](CO)NC(=O)[C@H](CCCNC(=N)N)N(C)C(=O)c2ccccc2CSC(C)(C)[C@@H](C(=O)N[C@@H](Cc2ccc(-c3ccccc3)cc2)C(=O)N[C@H](CCC(=O)O)C(=O)N[C@H](CCCCNC(=O)COCC(=O)NCCCC[C@@H](NC(=O)[C@@H](CCC(=O)O)NC(=O)[C@H](Cc2ccc(-c3ccccc3)cc2)NC(=O)[C@H]2NC(=O)[C@H](CC(C)C)NC(=O)[C@H]([C@@H](C)O)NC(=O)[C@H](CC(=O)O)NC(=O)[C@H](CO)NC(=O)[C@H](CCCNC(=N)N)N(C)C(=O)c3ccccc3CSC2(C)C)C(=O)O)C(=O)O)NC1=O [compound 208] (I: [NMeR]SDTL[Pen][Bip][dE][dK]-OH / II: [NMeR]SDTL[Pen][Bip][dE][dK]-OH; linker I:9-II:9 via Diglycolyl; linker I:N-I:6, II:N-II:6 via X1)	< 25	
CC(C)C[C@@H]1NC(=O)[C@H]([C@@H](C)O)NC(=O)[C@H](CC(=O)O)NC(=O)[C@H](CO)NC(=O)[C@H](CCCNC(=N)N)N(C)C(=O)c2ccccc2CSC(C)(C)[C@@H](C(=O)N[C@@H](Cc2c[nH]c3ccccc23)C(=O)N[C@@H](CCC(=O)O)C(N)=O)NC1=O [compound 96] (HELM PEPTIDE1{[meR].S.D.T.L.[Pen].W.E.[am]}|CHEM1{[O=C(c1ccccc1C[*:2])[*:1]]}$PEPTIDE1,CHEM1,1:R1-1:R1|PEPTIDE1,CHEM1,6:R3-1:R2$$$V2.0)		< 25
